# Experimental data published in BindingDB's records for doi:10.1016/j.bmc.2019.115214 (Nankai University, 2020).
# Experiment: Inhibition of HIV1 gp41- induced cell-cell fusion between viral envelope expressed in human HL2/3 cells to CD4/CCR5 receptor expressed TZM-bl cells after 6 hrs by luciferase assay
row,IC50 [nM],Substance
1,39,H-RIQQIEQKIHHIEQRIQQIEQRIEAQQHLLQLTVWGIKQLQARIL-OH
2,251,H-RIQQIEQKIHHIEQRIQQIEQLLQLTVWGIKQLQARIL-OH
3,82,H-RIQQIEQKIHHIEQRIQQIEQRISGIVQQQNNLLRIEAQQHLLQLTVWGIKQLQARIL-OH
4,2.5,H-YTSLIHSLIEEQNQQEKNEQELLELDKWALWNWF-OH
